# Measurements taken from a melting point compilation (Tetko et al.; mined from patent text by program, amines drawn as free bases though some values may be those of a salt).
row,Compound,melting point
1,COc1cccc(C=CC(=O)Cl)c1,43 to 45 °C
2,COC(=O)c1ccc2oc(C(=O)C(Cc3ccccc3)NC(=O)Cn3c(-c4ccc(F)cc4)ncc(N)c3=O)nc2c1 (centres undefined),208 to 213 °C
3,CC1NC(=O)NN=C1c1ccc(NCCO)cc1 (centres undefined),182 to 185 °C
4,CN(C)S(=O)(=O)Cc1ccccc1C(=O)O,112 to 119 °C
5,CC(=O)Nc1cc([N+](=O)[O-])ccc1CBr,188 to 189 °C
6,CCCS(=O)c1cc(OCCOc2ccccc2)ccc1C (centres undefined),115 to 116 °C
7,Cc1ccc(-c2cccc(NC(=O)Nc3cccc4c3CC(O)CC4)c2)cc1 (centres undefined),217 to 219 °C
8,O=C(Nc1ccc(Br)c(Br)c1[N+](=O)[O-])C(F)(F)F,107 to 109 °C
9,COc1ccc(-c2nc3cc(F)ccc3s2)cc1OC(=O)c1ccccc1Br,220 to 223 °C
10,CC1CC(=O)c2c(OS(=O)(=O)c3cccs3)ccc(Br)c2C1 (centres undefined),110 to 113 °C
11,CCOC(=O)c1cnn2c(-c3ccncc3)ccnc12,209 to 210 °C
12,O=c1nc(-c2cccc(-c3ccccc3)n2)sc2ccccc12,195 to 197 °C
13,COc1ccccc1Oc1c(NS(=O)(=O)c2ccc(C(C)(C)C)cc2)nc(CO)nc1OCCOc1ncc(Br)cn1,161 to 162 °C
14,CCCCCCCCCCc1ccc2ccc(C)c(O)c2c1,65 to 67 °C
15,COC(=O)c1cc2c(cc1C#Cc1ccccc1)NC(=O)CC(c1cccc(C#N)c1)=N2,> 250 °C
16,BrCc1ccccc1-c1cc(-c2ccccc2)on1,68 to 72 °C
17,COC(=O)c1cc(O)n(C(C)C)n1,162 to 163 °C
18,Cc1ccccc1C(O)C1CCN(C)CC1 (centres undefined),119 to 123 °C
19,CN(C)CCNC(=O)c1c[nH]c(=S)n1C1CCc2c(F)cc(F)cc2C1 (centres undefined),125 °C
20,C=CCn1c(-c2cccnc2)n[nH]c1=O,120 to 125 °C
21,CCOC(=O)C1=Cc2cc(Cl)ccc2OC1C(F)(F)F (centres undefined),62 to 64 °C
22,CC(C)c1cccc(C(C)C)c1NC(=O)NCC1(c2ccc(C(F)(F)F)cc2)CCCC1,196 to 197 °C
23,N=C(N)c1ccc(N2CCN(c3ccc(S(=O)(=O)CC(=O)O)cc3)C2=O)cc1,> 260 °C
24,CC(=O)Sc1ccc(C#Cc2ccc(C=O)cc2)cc1,128 to 129 °C
25,Nc1ccc(OCC(O)CO)c(O)c1 (centres undefined),141 °C

row,Compound,melting point
1,CC1(C)CCSc2cccc(O)c21,48 °C
2,O=C(Cc1ccncc1)N1CCC(=C2c3ccc(Cl)cc3CCc3c(On4nnc5ccccc54)ccnc32)CC1,98.6 to 102 °C
3,Oc1ccccc1-c1nc(-c2ccccc2)no1,156 to 158 °C
4,CC(=O)Nc1c(C(=O)c2ccccc2)[nH]c2c(Cl)cccc12,185 to 188 °C
5,COc1cc(O)c(C(=O)C=Cc2ccc(O)c(OC)c2)c(OC)c1,177 °C
6,Cc1ccc2c(c1)C(C)(C)[C@@H](C)[C@H](C)C2(C)C (relative stereo),65 to 66 °C
7,O=S(=O)(Cl)c1ccc2cc(Oc3c(Cl)cc(C(F)(F)F)cc3Cl)ccc2c1,140 °C
8,COc1cc(N)c(Cl)cc1C(=O)N[C@H]1CCN(CCNc2nc3ccccc3[nH]2)C[C@H]1OC (relative stereo),206 °C
9,CC(c1ccccc1N1CCCCC1)C(C(N)=O)c1ccc(C(=O)N2CCCCC2)cc1 (centres undefined),131 to 133 °C
10,CCn1cc(C(=O)O)c(=O)c2c(C)c(F)c(N3CCNCC3)c(F)c21,223 to 225 °C
11,COc1ccccc1N1CCN(CCCNC(=O)Cc2cccc3c(=O)c(C)c(-c4ccccc4)oc23)CC1,137 to 140 °C
12,C(=C\c1nc(COc2cccc(CCCn3cncn3)c2)co1)/c1ccccc1,59 to 60 °C
13,O=C(NC1(C(=O)Nc2nncs2)CCCC1)OCc1ccccc1,229 to 233 °C
14,CNC(=O)C(=O)CCCCCCc1csc(-c2ccccc2)n1,70 to 72 °C
15,O=C(O)CCSCCCCCCCCCCCCF,59 °C
16,CCOc1ccc(OCC(=O)OC(C)(C)C)c2c1C(=O)N(CSc1nnnn1-c1ccccc1)S2(=O)=O,110 to 112 °C
17,CCOc1cc(COc2nn(-c3ccccc3)cc2/C=C/P(=O)(OCC)OCC)ccc1OCc1nc(-c2ccco2)oc1C,117 to 118 °C
18,CC(C)C[C@@H](CC=O)NC(=O)[C@H](Cc1c[nH]cn1)NC(=O)[C@H](Cc1cccc2ccccc12)NC(=O)OCc1ccccc1,153 to 156 °C
19,COc1ccc(-c2nc(N(C)C)c3c(C)c(C#N)sc3n2)cc1,123 to 125 °C
20,O=C(O)C1=CCC2C1C(=O)C2(Cl)Cl (centres undefined),157 to 160 °C
21,Cc1c(Cc2cccc(C(F)(F)F)c2)oc2c(-c3cc(C(=O)NCCO)ccn3)cccc12,205 to 206 °C
22,O=C1CCC(Cc2ccc3ccccc3c2)=C1O,120 to 122 °C
23,CNC(=O)NCCN1CCC(=C2c3sccc3CCn3ccnc32)CC1,159 °C
24,C[C@]1(COC(=O)N(c2ccc(Cl)cc2)c2ccc(Cl)cc2)Cn2cc([N+](=O)[O-])nc2O1,200 to 201 °C
